Patent US9725460B2, “Oridonin analogs, compositions, and methods related thereto” (THE BOARD OF REGENTS OF THE UNIVERSITY OF TEXAS SYSTEM, priority 2013, dated 2017)
≈ marks a conversion by molar mass, not a printed value. Like-named read-outs stand apart in the source and are kept apart here.

Columns and labels:
MCF-7 = experiment: MTT cancer cell proliferation assay, MCF-7; type: cell-based, human; conditions: Homo sapiens
Procedure: (§1) In Vitro Determination of Effects of Synthesized Diterpenoids on Cancer Cell Proliferation. Breast cancer cell lines MCF-7, MDA-MB-231, […] and MCF/ADR were seeded in 96-well plates at a density of 1×10^4 cells/well and treated with DMSO and 0.01, 0.1, 1, 5, 10, and 100 μM of individual compound for 48 h, and then 20 μL of 3-(4,5-dimethylthiazol-2-yl)-2,5-diphenyltetrazolium bromide (MTT) (5 mg/mL in PBS) was added to each well and further incubated for another 4 h. Then MTT solution was removed, and 150 μL of DMSO was added to each well. Absorbance of all wells was determined by measuring OD at 550 nm after a 10 min incubation on a 96-well GlowMaxate absorbance reader (Promega, Madison, Wis.). Each individual compound was tested in quadruplicate wells for each concentration.
(§2) The growth inhibitory effects of the newly generated pyran-fused diterpenoids were evaluated in four breast cancer cell lines MCF-7 (ER-positive), MDAMB-231 (ER-negative and triple-negative), MDA-MB-468 (ER-negative and triple-negative) as well as MCF-7/ADR (adriamycin-resistant) using MTT assays as described in the Experimental Section.

Panc-1 = experiment: Cancer cell proliferation assay, Panc-1; type: cell-based; conditions: Homo sapiens
Procedure: (§3) In Vitro Determination of Effects of Synthesized Diterpenoids on Cancer Cell Proliferation. […] Then MTT solution was removed, and 150 μL of DMSO was added to each well. Absorbance of all wells was determined by measuring OD at 550 nm after a 10 min incubation on a 96-well GlowMaxate absorbance reader (Promega, Madison, Wis.). Each individual compound was tested in quadruplicate wells for each concentration.

AsPC1 = experiment: Cancer cell proliferation assay, AsPC1; type: cell-based; conditions: Homo sapiens
Procedure: as §3

[1] = test system: breast, pancreatic, and prostate cancer cell lines; experiment: Anti-proliferation effects against cancer cell lines; type: cell-based, human; conditions: summary of Tables 1 and 2
Procedure: as §1

MDA-MB-231 = experiment: MTT cancer cell proliferation assay, MDA-MB-231; type: cell-based, human; conditions: Homo sapiens
Procedure: as §1, §2

DU145 = experiment: Cancer cell proliferation assay, DU145; type: cell-based; conditions: Homo sapiens
Aqueous solubility = type: physicochemical; conditions: for Aqueous solubility compared with oridonin: FIG. 2; for solubility: water
MDA-MB-468 = experiment: MTT cancer cell proliferation assay, MDA-MB-468; type: cell-based, human; conditions: Homo sapiens, MDA-MB-468, 48 h, Table 3; pyran-fused diterpenoids; MTT 48 h; mean ± SE of three experiments
Procedure: as §1
as §2, with “Section. The capability of these new molecules to inhibit the growth of cancer cells was summarized in Table 3 and compared with that of adriamycin and 1 spontaneously.” for “Section.”

MCF-7/ADR = experiment: MTT growth inhibition, drug-resistant MCF-7/ADR; type: cell-based, human; conditions: Homo sapiens, NCI/ADR-RES, 48 h, Table 3; adriamycin-resistant; MTT 48 h; mean ± SE of three experiments
Procedure: as §1
as §2, with “Section. The capability of these new molecules to inhibit the growth of cancer cells was summarized in Table 3 and compared with that of adriamycin and 1 spontaneously.” for “Section.”

[2] = MCF7, Table 1a, breast cancer, read-out: IC50 (μM) MCF-7
[3] = MCF7, Table 2b, mean of at least three experiments, read-out: Effect on proliferation MCF-7 (ER positive) (IC50)
[4] = PANC-1, Table 1a, pancreatic cancer, read-out: IC50 (μM) Panc-1
[5] = PANC-1, Table 2b, mean of at least three experiments, read-out: Effect on proliferation Panc-1 (IC50)
[6] = ASPC1, Table 1a, pancreatic cancer, read-out: IC50 (μM) AsPC1
[7] = ASPC1, Table 2b, mean of at least three experiments, read-out: Effect on proliferation AsPC1 (IC50)
[8] = MDA-MB-231, Table 1a, breast cancer, read-out: IC50 (μM) MDA-MB-231
[9] = MDA-MB-231, Table 2b, mean of at least three experiments, read-out: Effect on proliferation MDA-MB-231 (ER negative) (IC50)
[10] = DU-145, Table 1a, prostate cancer, read-out: IC50 (μM) DU145
[11] = DU-145, Table 2b, mean of at least three experiments, read-out: Effect on proliferation DU145 (IC50)
[12] = in the form of HCl salt, read-out: Aqueous solubility (saturated concentration)

| Compound | IC50 (MCF-7; [2]) | IC50 (MCF-7; [3]) | IC50 (Panc-1; [4]) | IC50 (Panc-1; [5]) | IC50 (AsPC1; [6]) | IC50 (AsPC1; [7]) | IC50 values, anti-proliferation effects against cancer cell lines [1] | IC50 (MDA-MB-231; [8]) | IC50 (MDA-MB-231; [9]) | IC50 (DU145; [10]) | IC50 (DU145; [11]) | solubility (Aqueous solubility; [12]) | also measured |
| --- | --- | --- | --- | --- | --- | --- | --- | --- | --- | --- | --- | --- | --- |
| C=C1C(=O)[C@]23[C@H](O)[C@H]1CC[C@H]2[C@@]12CO[C@]3(O)[C@@H](O)[C@@H]1C(C)(C)Cc1sc(NCCCC)nc12 [CYD-6-28, (5aR,6S ,7S,7aR,10S,12aS,12bR,15R)-2-(butylamino)-6,7,15-trihydroxy-5,5-dimethyl-9-methylene-5,5a,6,7,10,11,12,12a-octahydro-4H-7,12b-(epoxymethano)-7a,10-methanocyclohepta[7,8]naphtho[1,2-d]thiazol-8(9H)-one] | 0.59 µM | 0.6 µM | 4.01 µM | 4 µM | 1.39 µM | 1.4 µM | low micromolar to nanomolar | 1.06 µM | 1.1 µM | 4.22 µM | 4.2 µM | – | – |
| C=C1C(=O)[C@@]23C(CC[C@H]1[C@H]2O)[C@@]12CO[C@]3(O)[C@@H](O)C1C(C)(C)Cc1sc(C)nc12 (stereo partly drawn) [CYD-6-19, (6S,7S,7aR,10R,12bR,15R)-6,7,15-trihydroxy-2,5,5-trimethyl-9-methylene-5,5a,6,7,10,11,12,12a-octahydro-4H-7,12b-(epoxymethano)-7a,10-methanocyclohepta[7,8]naphtho[1,2-d]thiazol-8(9H)-one] | – | – | – | – | – | – | – | – | – | – | – | – | IC50 (MCF-7; MCF7, read-out: Effect on proliferation MCF-7 (ER positive) (IC50)): 2.6 µM; IC50 (MCF-7; MCF7, read-out: IC50 (μM) MCF-7): 2.63 µM; Aqueous solubility compared with oridonin (Aqueous solubility): significantly improved solubility; solubility (Aqueous solubility; compound as such, read-out: Aqueous solubility): 4.47 mg/mL (≈ 10.7 mM); IC50 (Panc-1; PANC-1, read-out: Effect on proliferation Panc-1 (IC50)): 7.8 µM; IC50 (Panc-1; PANC-1, read-out: IC50 (μM) Panc-1): 7.83 µM; IC50 (AsPC1; ASPC1, read-out: Effect on proliferation AsPC1 (IC50)): 6.5 µM; IC50 (AsPC1; ASPC1, read-out: IC50 (μM) AsPC1): 6.46 µM; IC50 (MDA-MB-231; MDA-MB-231, read-out: Effect on proliferation MDA-MB-231 (ER negative) (IC50)): 6.9 µM; IC50 (MDA-MB-231; MDA-MB-231, read-out: IC50 (μM) MDA-MB-231): 6.88 µM; IC50 (DU145; DU-145, read-out: Effect on proliferation DU145 (IC50)): 7.6 µM; IC50 (DU145; DU-145, read-out: IC50 (μM) DU145): 7.63 µM |
| C=C1C(=O)[C@]23[C@H](O)[C@H]1CC[C@H]2[C@@]12CO[C@]3(O)[C@@H](O)[C@@H]1C(C)(C)Cc1sc(NC(=N)N)nc12 [CYD-6-29, 1-((5aR,6S,7S,7aR,10S,12aS,12bR,15R)-6,7,15-trihydroxy-5,5-dimethyl-9-methylene-8-oxo-5,5a,6,7,8,9,10,11,12,12a-decahydro-4H-7,12b-(epoxymethano)-7a,10-methanocyclohepta[7,8]naphtho[1,2-d]thiazol-2-yl)guanidine] | 3.43 µM | 3.4 µM | 15.4 µM | > 10 µM | > 10 µM | > 10 µM | – | > 10 µM | > 10 µM | 35.9 µM | > 10 µM | > 100 mg/mL | – |
| C=C1C(=O)[C@]23[C@H](O)[C@H]1CC[C@H]2[C@@]12CO[C@]3(O)[C@@H](O)[C@@H]1C(C)(C)Cc1sc(NC(C)C)nc12 [CYD-6-30, (5aR,6S,7S,7aR,10S,12aS,12bR,15R)-6,7,15-trihydroxy-2-(isopropylamino)-5,5-dimethyl-9-methylene-5,5a,6,7,10,11,12,12a-octahydro-4H-7,12b-(epoxymethano)-7a,10-methanocyclohepta[7,8]naphtho[1,2-d]thiazol-8(9H)-one] | 0.82 µM | 0.8 µM | 3.27 µM | 3.3 µM | 1.45 µM | 1.4 µM | low micromolar to nanomolar | 0.28 µM | 0.3 µM | 5.31 µM | 5.3 µM | – | – |
| C=C1C(=O)[C@@]23C(CC[C@H]1[C@H]2O)[C@@]12CO[C@]3(O)[C@@H](O)C1C(C)(C)Cc1sc(NC3CCCCC3)nc12 (stereo partly drawn) [CYD-6-17-2, (6S,7S,7aR,10R,12bR,15R)-2-(cyclohexylamino)-6,7,15-trihydroxy-5,5-dimethyl-9-methylene-5,5a,6,7,10,11,12,12a-octahydro-4H-7,12b-(epoxymethano)-7a,10-methanocyclohepta[7,8]naphtho[1,2-d]thiazol-8(9H)-one] | 0.94 µM | 0.9 µM | 3.74 µM | 3.7 µM | 1.65 µM | 1.7 µM | low micromolar to nanomolar | 0.83 µM | 0.8 µM | 1.82 µM | 1.8 µM | – | – |
| C=C1C(=O)[C@@]23[C@@H]4OC(C)(C)O[C@@]25OC[C@]2(C6=C(CC[C@@H](SCC)O6)CC(C)(C)[C@H]2[C@@H]5O)[C@@H]3CC[C@@H]14 [CYD-8-84] | – | – | – | – | – | – | – | – | – | – | – | – | IC50 (MCF-7; MCF7, 48 h, Table 3, pyran-fused diterpenoids, MTT 48 h, mean ± SE of three experiments, read-out: IC50 (μM) MCF-7): 2.3 ± 1.4 µM; IC50 (MDA-MB-468): 2.83 ± 0.42 µM; IC50 (MCF-7/ADR): 3.82 ± 0.47 µM; IC50 (MDA-MB-231; MDA-MB-231, 48 h, Table 3, pyran-fused diterpenoids, MTT 48 h, mean ± SE of three experiments, read-out: IC50 (μM) MDA-MB-231): 2.87 ± 0.54 µM |

The next lines start with results.

| IC50 (MCF-7; [2]) | IC50 (MCF-7; [3]) | IC50 (Panc-1; [4]) | IC50 (Panc-1; [5]) | IC50 (AsPC1; [6]) | IC50 (AsPC1; [7]) | IC50 values, anti-proliferation effects against cancer cell lines [1] | IC50 (MDA-MB-231; [8]) | IC50 (MDA-MB-231; [9]) | IC50 (DU145; [10]) | IC50 (DU145; [11]) | solubility (Aqueous solubility; [12]) | Compound | also measured |
| --- | --- | --- | --- | --- | --- | --- | --- | --- | --- | --- | --- | --- | --- |
| 1.28 µM | 1.3 µM | 2.33 µM | 2.3 µM | 1.84 µM | 1.8 µM | low micromolar to nanomolar | 2.06 µM | 2.1 µM | 4.05 µM | 4.1 µM | 81.2 mg/mL | C=C1C(=O)[C@]23[C@H](O)[C@H]1CC[C@H]2[C@@]12CO[C@]3(O)[C@@H](O)[C@@H]1C(C)(C)Cc1sc(NC)nc12 [CYD-5-54, (5aR,6S,7S,7aR,10S,12aS,12bR,15R)-6,7,15-trihydroxy-5,5-dimethyl-2-(methylamino)-9-methylene-5,5a,6,7,10,11,12,12a-octahydro-4H-7,12b-(epoxymethano)-7a,10-methanocyclohepta[7,8]naphtho[1,2-d]thiazol-8(9H)-one] | Aqueous solubility compared with oridonin (Aqueous solubility): significantly improved solubility; Improvement of aqueous solubility in comparison with oridonin (Aqueous solubility; HCl salt vs oridonin (1.29 mg/mL)): ~62 fold |
| 1 µM | 1 µM | 1.54 µM | 1.5 µM | 1.1 µM | 1.1 µM | – | 1.83 µM | 1.8 µM | 1.16 µM | 1.2 µM | > 100 mg/mL | C=C1C(=O)[C@@]23C(CCC1[C@H]2O)[C@@]12COC3(O)[C@@H](O)C1C(C)(C)Cc1sc(NCCN3CCCCC3)nc12 (stereo in doubt) [CYD-6-20, (6S,7S,7aR,10R,12bR,15R)-6,7,15-trihydroxy-5,5-dimethyl-9-methylene-2-((2-(piperidin-1-yl)ethyl)amino)-5,5a,6,7,10,11,12,12a-octahydro-4H-7,12b(epoxymethano)-7a,10-methanocyclohepta[7,8]naphtho[1,2-d]thiazol-8(9H)-one] | – |
